One assay relates to MMP-3, MMP-9 and MMP-2. Kind of assay: MMP profiling assay, overall comparison of the three MMPs (Table 5 data). As to conditions: for selectivity of activity among the MMP's, in words: MMP-2 and MMP-9 vs MMP-3; for MMP inhibition activity in words: substituent size on the 4-phenyl ring. In kind it is biochemical, human. The text has this:
MMP Microfluorometric Profiling Assay
IC50 Determination in Microfluorometric Assay
((Control values-Treated Values)/Control Values)×100

In another assay the test system is human colon tumor. Particulars: given intraperitoneally; orthotopic model in nude mice; cited from earlier work.
Assay [1] has as its system human ovarian carcinoma xenografts. Particulars: mouse, in vivo; cited from earlier work.

Take `CCCCCCCOc1ccc(C(=O)CC(CCN2C(=O)c3ccccc3C2=O)C(=O)O)cc1` (centres unmarked) [Example 10, 4-(4-heptyloxyphenyl)4-oxo-2-(2-phthalimidoethyl) butyric acid]: the “selectivity of activity among the MMP's, in words” value in the assay on MMP-3, MMP-9 and MMP-2 is recorded as “broad high activity”.

On to `COc1ccc(C(=O)CC(CCN2C(=O)c3ccccc3C2=O)C(=O)O)cc1` (centres unmarked) [Compound G, 4-(4-methoxyphenyl)-4-oxo-2-(2-phthalimidoethyl)butyric acid], for which the “MMP inhibition activity in words” value with MMP-3, MMP-9 and MMP-2 was “activities are low”.

`CCCCCCOc1ccc(C(=O)CC(CCN2C(=O)c3ccccc3C2=O)C(=O)O)cc1` (centres unmarked) [Example 11, 4-(4-hexyloxyphenyl)-4-oxo-2-(2-phthalimidoethyl) butyric acid]: the “selectivity of activity among the MMP's, in words” value in the assay with MMP-3, MMP-9 and MMP-2 is listed as “broad high activity”. For the compound `O=C(CC(CCN1C(=O)c2ccccc2C1=O)C(=O)O)c1ccccc1` (centres unmarked) [Compound D, 4-phenyl-4-oxo-2-(2-phthalimidoethyl)butyric acid], the “MMP inhibition activity in words” value with MMP-3, MMP-9 and MMP-2 is listed as “activities are low”. Turning to `O=C(CC(CCN1C(=O)c2ccccc2C1=O)C(=O)O)c1ccc(Br)cc1` (centres unmarked) [Compound B, 4-(4-bromophenyl)-4-oxo-2-(2-phthalimidoethyl) butyric acid], the “MMP inhibition activity in words” value in the assay on MMP-3, MMP-9 and MMP-2 is “activities are low”.

As for `CCCCCCCCCCCCCCOc1ccc(C(=O)CC(CCN2C(=O)c3ccccc3C2=O)C(=O)O)cc1` (centres unmarked) [Compound F, 4-(4-tetradecyloxyphenyl)-4-oxo-2-(2-phthalimidoethyl)butyric acid], in the assay with MMP-3, MMP-9 and MMP-2, the “MMP inhibition activity in words” value is reported as “activity is also low”. On to `CNC(=O)[C@H](Cc1ccccc1)NC(=O)[C@H](CC(C)C)[C@H](CSc1cccs1)C(=O)NO` [batimastat], for which the “human colon tumor growth and spread” value in the assay with human colon tumor was “inhibits human colon tumor growth and spread”. The “survival of mice bearing human ovarian carcinoma xenografts” value in assay [1] is “prolongs the survival of mice”.

Source of the values: patent US5863915A, “Substituted 4-arylbutyric acid derivatives as matrix metalloprotease” (Bayer Corporation, priority 1997, dated 1999).
